# From patent US20260138976A1 (Hoffmann-La Roche Inc., priority 2022, published 2026)
# Legend:
# [1] = test system: primary human T-cells; experiment: IL2 secretion measurements (24 h, CD3-stimulated T-cells, PBS counter screen); format: cell-based; settings: for Emax IL2 (% activation): CD3 condition, normalised to DMSO (neutral) and 20 μM reference compound A1 = 100%; for EC50: Homo sapiens, T-cell, CD3-stimulated primary human T-cells, IL2 secretion, fitted sigmoidal curve, read-out: Tcell IL2 CD3 EC50
# Procedure, shortened: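 Expanded primary human T-cells (100k/well) were plated on anti-CD3-coated or PBS-only plates with compound in a 5–6 point dose response (top 20 or 10 μM final, 3.333-fold, 0.2% DMSO). IL-2 in 24 h supernatants was quantified by ProQuantum immunoassay or ELISA. Values were normalized to DMSO and 20 μM reference compound A1 (100%), giving EC50 and Emax.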
# [2] = target: T1, DGKα (hDGKalpha(1-735)-N-His) (Homo sapiens, UniProt P23743); experiment: In vitro DGK inhibition assay, DGKalpha ADP Glo (in house); format: biochemical; settings: 4 nM DGKα, 25 μM ATP, 125 uM DLG in liposomes, 1 hour reaction
# T1 construct: hDGKalpha(1-735)-N-His; His (N); made in house; host or cells: Sf21 insect cells (baculovirus)
# Procedure, shortened: (§1)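 Full-length His-tagged human DGKα (4 nM) or DGKζ (2 nM), expressed in Sf21 cells, phosphorylated 125 µM DLG in PS/PC liposomes with ATP at 25 µM (α) or 50 µM (ζ) for 1 h. ADP was measured by ADP-Glo luminescence. Compounds were tested as 11-point 1:3 series in 2% DMSO.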
# [3] = target: T2, DGKζ (hDGKzeta(1-928)-N-His) (Homo sapiens, UniProt Q13574); experiment: In vitro DGK inhibition assay, DGKzeta ADP Glo (in house); format: biochemical; settings: 2 nM DGKζ, 50 μM ATP, 125 uM DLG in liposomes, 1 hour reaction
# T2 construct: hDGKzeta(1-928)-N-His; His (N); made in house; host or cells: Sf21 insect cells (baculovirus)
# Procedure, shortened: as §1
# T1 sequence (P23743 whole entry): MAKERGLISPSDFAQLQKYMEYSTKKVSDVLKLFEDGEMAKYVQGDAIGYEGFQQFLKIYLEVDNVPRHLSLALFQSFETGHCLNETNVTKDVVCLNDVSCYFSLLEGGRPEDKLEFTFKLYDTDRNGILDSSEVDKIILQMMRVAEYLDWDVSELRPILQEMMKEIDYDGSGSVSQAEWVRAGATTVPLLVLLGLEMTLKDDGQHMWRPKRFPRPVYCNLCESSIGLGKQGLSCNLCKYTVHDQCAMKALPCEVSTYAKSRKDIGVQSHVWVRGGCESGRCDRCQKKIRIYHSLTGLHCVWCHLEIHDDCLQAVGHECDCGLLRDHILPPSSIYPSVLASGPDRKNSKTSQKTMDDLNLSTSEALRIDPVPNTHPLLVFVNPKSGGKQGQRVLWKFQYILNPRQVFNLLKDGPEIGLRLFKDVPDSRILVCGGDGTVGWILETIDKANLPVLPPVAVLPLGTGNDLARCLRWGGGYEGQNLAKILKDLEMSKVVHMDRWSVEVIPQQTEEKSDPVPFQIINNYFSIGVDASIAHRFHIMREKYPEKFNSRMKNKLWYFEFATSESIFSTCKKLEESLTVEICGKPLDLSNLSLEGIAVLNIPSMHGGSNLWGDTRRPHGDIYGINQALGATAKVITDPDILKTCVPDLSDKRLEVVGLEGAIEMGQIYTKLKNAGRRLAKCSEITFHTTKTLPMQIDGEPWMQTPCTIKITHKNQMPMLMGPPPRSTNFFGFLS
# T2 sequence (Q13574 whole entry): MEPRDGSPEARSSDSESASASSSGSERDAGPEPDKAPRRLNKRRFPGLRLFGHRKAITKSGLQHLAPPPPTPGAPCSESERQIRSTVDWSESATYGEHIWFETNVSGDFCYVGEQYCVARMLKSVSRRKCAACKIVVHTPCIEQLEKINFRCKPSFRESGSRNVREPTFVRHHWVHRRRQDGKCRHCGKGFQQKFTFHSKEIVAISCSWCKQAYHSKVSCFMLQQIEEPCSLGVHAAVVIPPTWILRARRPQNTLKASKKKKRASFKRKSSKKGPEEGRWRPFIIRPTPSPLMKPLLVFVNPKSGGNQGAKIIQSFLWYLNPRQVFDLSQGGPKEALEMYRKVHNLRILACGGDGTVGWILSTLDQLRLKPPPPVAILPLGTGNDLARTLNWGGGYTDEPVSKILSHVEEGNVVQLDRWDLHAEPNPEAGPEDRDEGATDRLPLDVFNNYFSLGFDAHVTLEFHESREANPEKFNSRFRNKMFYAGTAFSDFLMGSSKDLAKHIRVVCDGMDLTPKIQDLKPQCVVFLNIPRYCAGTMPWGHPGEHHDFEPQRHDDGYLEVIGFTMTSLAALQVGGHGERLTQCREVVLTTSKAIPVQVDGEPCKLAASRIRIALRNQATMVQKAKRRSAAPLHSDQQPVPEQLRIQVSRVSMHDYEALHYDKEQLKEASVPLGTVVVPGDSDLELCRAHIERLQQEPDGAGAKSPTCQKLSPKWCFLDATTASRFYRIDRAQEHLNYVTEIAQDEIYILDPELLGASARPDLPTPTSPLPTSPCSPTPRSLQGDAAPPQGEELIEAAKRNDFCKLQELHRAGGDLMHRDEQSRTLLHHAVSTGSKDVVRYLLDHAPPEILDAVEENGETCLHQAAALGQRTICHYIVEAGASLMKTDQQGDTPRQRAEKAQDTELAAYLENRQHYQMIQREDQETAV
IC50 [2] [µM],IC50 [3] [µM],SMILES,Emax IL2 (% activation) [1] [% activation],EC50 [1] [µM]
43.4,2.42,"C[C@](N)(c1nnc(-c2ccc3c(c2)N(Cc2ccc(-c4noc(C(F)(F)F)n4)cc2)C(=O)[C@@H](N)CS3(=O)=O)o1)C(F)(F)F [Example 53, (3R)-3-amino-7-[5-[(1S)-1-amino-2,2,2-trifluoro-1-methyl-ethyl]-1,3,4-oxadiazol-2-yl]-1,1-dioxo-5-[[4-[5-(trifluoromethyl)-1,2,4-oxadiazol-3-yl]phenyl]methyl]-2,3-dihydro-1λ^6,5-benzothiazepin-4-one]",187,2.07
> 62.5,20.3,N[C@H]1CS(=O)(=O)c2ccc(-c3nnc(C4(CO)CCCO4)o3)cc2N(Cc2ccc(-c3ccc(C(F)(F)F)cc3)cc2)C1=O (stereo partly drawn) [Example 55],74,3.11
33.7,1.72,"COc1ccc(-c2ccc(CN3C(=O)[C@@H](N)CS(=O)(=O)c4ccc(-c5nnc(C6(CO)CCCO6)o5)cc43)cc2)cc1 (stereo partly drawn) [Example 63, (3R)-3-amino-7-[5-[2-(hydroxymethyl)tetrahydrofuran-2-yl]-1,3,4-oxadiazol-2-yl]-5-[[4-(4-methoxyphenyl)phenyl]methyl]-1,1-dioxo-2,3-dihydro-1λ^6,5-benzothiazepin-4-one]",78,2.41
2.49,6.44,COC(F)(c1nnc(-c2ccc3c(c2)N(Cc2ccc(-c4nnc(C5CC5)o4)cc2)C(=O)[C@@H](N)CS3(=O)=O)o1)C(F)(F)F (stereo partly drawn) [Example 65],92,1.42
24.7,0.895,"N[C@H]1CS(=O)(=O)c2ccc(-c3nnc(N4CCC(F)(F)CC4)o3)cc2N(Cc2ccc(-c3nnc(C(F)(F)F)o3)cc2)C1=O [Example 71, (3R)-3-amino-7-[5-(4,4-difluoro-1-piperidyl)-1,3,4-oxadiazol-2-yl]-1,1-dioxo-5-[[4-[5-(trifluoromethyl)-1,3,4-oxadiazol-2-yl]phenyl]methyl]-2,3-dihydro-1λ^6,5-benzothiazepin-4-one]",111,3.26
> 62.5,20.9,"CC1(Nc2nnc(-c3ccc4c(c3)N(Cc3ccc(-c5noc(C(F)(F)F)n5)cc3)C(=O)[C@@H](N)CS4(=O)=O)o2)CC(F)(F)C1 [Example 72, (3R)-3-amino-7-[5-[(3,3-difluoro-1-methyl-cyclobutyl)amino]-1,3,4-oxadiazol-2-yl]-1,1-dioxo-5-[[4-[5-(trifluoromethyl)-1,2,4-oxadiazol-3-yl]phenyl]methyl]-2,3-dihydro-1λ^6,5-benzothiazepin-4-one]",238,3.28
> 62.5,13.6,"N[C@H]1CS(=O)(=O)c2ccc(-c3nnc(N4CCOC(C(F)(F)F)C4)o3)cc2N(Cc2ccc(-c3ccc(C(F)(F)F)cc3)cc2)C1=O (stereo partly drawn) [Example 73, (3R)-3-amino-1,1-dioxo-7-[5-[2-(trifluoromethyl)morpholin-4-yl]-1,3,4-oxadiazol-2-yl]-5-[[4-[4-(trifluoromethyl)phenyl]phenyl]methyl]-2,3-dihydro-1λ^6,5-benzothiazepin-4-one]",116,2.53
3.66,0.77,"N[C@H]1CS(=O)(=O)c2ccc(-c3nnc(N4CCOC(C(F)(F)F)C4)o3)cc2N(Cc2ccc(-c3noc(C(F)(F)F)n3)cc2)C1=O (stereo partly drawn) [Example 74, (3R)-3-amino-1,1-dioxo-7-[5-[2-(trifluoromethyl)morpholin-4-yl]-1,3,4-oxadiazol-2-yl]-5-[[4-[5-(trifluoromethyl)-1,2,4-oxadiazol-3-yl]phenyl]methyl]-2,3-dihydro-1λ^6,5-benzothiazepin-4-one]",206,1.46
45.7,2.68,"N[C@H]1CS(=O)(=O)c2ccc(-c3nnc(N4CCOC(C(F)(F)F)C4)o3)cc2N(Cc2ccc(-c3ccc(C(F)(F)F)cn3)cc2)C1=O (stereo partly drawn) [Example 75, (3R)-3-amino-1,1-dioxo-7-[5-[2-(trifluoromethyl)morpholin-4-yl]-1,3,4-oxadiazol-2-yl]-5-[[4-[5-(trifluoromethyl)-2-pyridyl]phenyl]methyl]-2,3-dihydro-1λ^6,5-benzothiazepin-4-one]",140,2.55
26.1,1.08,"COc1ccc(-c2ccc(CN3C(=O)[C@@H](N)CS(=O)(=O)c4ccc(-c5nnc(N6CCC(F)(F)C6)o5)cc43)cc2)cc1 [Example 76, (3R)-3-amino-7-[5-(3,3-difluoropyrrolidin-1-yl)-1,3,4-oxadiazol-2-yl]-5-[[4-(4-methoxyphenyl)phenyl]methyl]-1,1-dioxo-2,3-dihydro-1λ^6,5-benzothiazepin-4-one]",297,2.64
48.2,1.53,N[C@H]1CS(=O)(=O)c2ccc(-c3nnc(N4CCOC5(CC5)C4)o3)cc2N(Cc2ccc(-c3noc(C(F)(F)F)n3)cc2)C1=O [Example 77],170,3.45
43.3,2.53,"N[C@H]1CS(=O)(=O)c2ccc(-c3nnc(N4CCOC(F)(F)C4)o3)cc2N(Cc2ccc(-c3noc(C(F)(F)F)n3)cc2)C1=O [Example 78, (3R)-3-amino-7-[5-(2,2-difluoromorpholin-4-yl)-1,3,4-oxadiazol-2-yl]-1,1-dioxo-5-[[4-[5-(trifluoromethyl)-1,2,4-oxadiazol-3-yl]phenyl]methyl]-2,3-dihydro-1λ^6,5-benzothiazepin-4-one]",216,2.34
39.7,0.88,"COc1ccc(-c2ccc(CN3C(=O)[C@@H](N)CS(=O)(=O)c4ccc(-c5nnc(N6CCOC(F)(F)C6)o5)cc43)cc2)cc1 [Example 79, (3R)-3-amino-7-[5-(2,2-difluoromorpholin-4-yl)-1,3,4-oxadiazol-2-yl]-5-[[4-(4-methoxyphenyl)phenyl]methyl]-1,1-dioxo-2,3-dihydro-1λ^6,5-benzothiazepin-4-one]",236,2.45
38.9,2.45,"COc1ccc(-c2ccc(CN3C(=O)[C@@H](N)CS(=O)(=O)c4ccc(-c5nnc(N(C)CC(F)(F)F)o5)cc43)cc2)cc1 [Example 81, (3R)-3-amino-5-[[4-(4-methoxyphenyl)phenyl]methyl]-7-[5-[methyl(2,2,2-trifluoroethyl)amino]-1,3,4-oxadiazol-2-yl]-1,1-dioxo-2,3-dihydro-1λ^6,5-benzothiazepin-4-one]",66,0.523
> 62.5,3.07,"N[C@H]1CS(=O)(=O)c2ccc(-c3noc(C4(N)COC4)n3)cc2N(Cc2ccc(-c3noc(C(F)(F)F)n3)cc2)C1=O [Example 84, (3R)-3-amino-7-[5-(3-aminooxetan-3-yl)-1,2,4-oxadiazol-3-yl]-1,1-dioxo-5-[[4-[5-(trifluoromethyl)-1,2,4-oxadiazol-3-yl]phenyl]methyl]-2,3-dihydro-1lambda6,5-benzothiazepin-4-one]",33,> 10
> 62.5,2.1,"N[C@H]1CS(=O)(=O)c2ccc(-c3noc(-c4cccnc4Cl)n3)cc2N(Cc2ccc(-c3noc(C4CC4)n3)cc2)C1=O [Example 85, (3R)-3-amino-7-[5-(2-chloro-3-pyridyl)-1,2,4-oxadiazol-3-yl]-5-[[4-(5-cyclopropyl-1,2,4-oxadiazol-3-yl)phenyl]methyl]-1,1-dioxo-2,3-dihydro-1λ^6,5-benzothiazepin-4-one]",4,> 10

SMILES,IC50 [2] [µM],IC50 [3] [µM],Emax IL2 (% activation) [1] [% activation],EC50 [1] [µM]
"COC(=O)N1CC2CC(c3nnc(-c4ccc5c(c4)N(Cc4ccc(-c6ccc(OC)cc6)cc4)C(=O)[C@@H](N)CS5(=O)=O)o3)(C2)C1 [Example 59, methyl 1-[5-[(3R)-3-amino-5-[[4-(4-methoxyphenyl)phenyl]methyl]-1,1,4-trioxo-2,3-dihydro-1λ^6,5-benzothiazepin-7-yl]-1,3,4-oxadiazol-2-yl]-3-azabicyclo[3.1.1]heptane-3-carboxylate]",3.04,1.14,175,0.596
"COC(=O)N1CC2CC(c3nnc(-c4ccc5c(c4)N(Cc4ccc(-c6ccc(C(F)(F)F)cc6)cc4)C(=O)[C@@H](N)CS5(=O)=O)o3)(C2)C1 [Example 60, methyl 1-[5-[(3R)-3-amino-1,1,4-trioxo-5-[[4-[4-(trifluoromethyl)phenyl]phenyl]methyl]-2,3-dihydro-1λ^6,5-benzothiazepin-7-yl]-1,3,4-oxadiazol-2-yl]-3-azabicyclo[3.1.1]heptane-3-carboxylate]",3.63,3.08,163,0.424
